{"source": "ChEMBL document CHEMBL1773059", "about": "“NMS-P937, a 4,5-dihydro-1H-pyrazolo[4,3-h]quinazoline derivative as potent and selective Polo-like kinase 1 inhibitor” (Bioorg Med Chem Lett, 2011)", "key": {"[1]": {"biological_target": "High affinity nerve growth factor receptor (Homo sapiens, UniProt P04629)", "test": "Inhibition of TRKA assessed as [33P]gamma-ATP incorporation into substrate after 60 mins by gamma counting"}, "[2]": {"biological_target": "Non-receptor tyrosine-protein kinase TYK2 (Homo sapiens, UniProt P29597)", "test": "Inhibition of TYK2 assessed as [33P]gamma-ATP incorporation into substrate after 60 mins by gamma counting"}, "[3]": {"biological_target": "Vascular endothelial growth factor receptor 3 (Homo sapiens, UniProt P35916)", "test": "Inhibition of VEGFR3 assessed as [33P]gamma-ATP incorporation into substrate after 60 mins by gamma counting"}, "[4]": {"biological_target": "Serine/threonine-protein kinase NIM1 (Homo sapiens, UniProt Q8IY84)", "sequence (Q8IY84 whole entry)": "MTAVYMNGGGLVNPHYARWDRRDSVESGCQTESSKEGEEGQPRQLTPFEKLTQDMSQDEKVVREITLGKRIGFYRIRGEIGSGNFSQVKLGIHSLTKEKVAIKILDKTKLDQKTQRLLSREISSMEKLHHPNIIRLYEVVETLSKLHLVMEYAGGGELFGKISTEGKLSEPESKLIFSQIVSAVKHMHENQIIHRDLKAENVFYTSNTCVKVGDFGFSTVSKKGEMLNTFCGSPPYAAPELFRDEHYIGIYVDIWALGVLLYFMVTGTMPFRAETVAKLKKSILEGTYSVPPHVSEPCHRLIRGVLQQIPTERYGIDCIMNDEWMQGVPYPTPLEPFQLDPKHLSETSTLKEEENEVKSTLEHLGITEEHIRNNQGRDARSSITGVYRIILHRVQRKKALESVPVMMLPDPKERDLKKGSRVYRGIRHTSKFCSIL", "test": "Inhibition of NIM1 assessed as [33P]gamma-ATP incorporation into substrate after 60 mins by gamma counting"}, "[5]": {"test": "Inhibition of PDGFR assessed as [33P]gamma-ATP incorporation into substrate after 60 mins by gamma counting"}, "Ephrin type-A receptor 2": {"biological_target": "Ephrin type-A receptor 2 (Homo sapiens, UniProt P29317)", "test": "Inhibition of EphA2 assessed as [33P]gamma-ATP incorporation into substrate after 60 mins by gamma counting"}, "[6]": {"biological_target": "Mitogen-activated protein kinase 1 (Homo sapiens, UniProt P28482)", "test": "Inhibition of ERK2 assessed as [33P]gamma-ATP incorporation into substrate after 60 mins by gamma counting"}, "[7]": {"biological_target": "Fibroblast growth factor receptor 1 (Homo sapiens, UniProt P11362)", "test": "Inhibition of FGFR1 assessed as [33P]gamma-ATP incorporation into substrate after 60 mins by gamma counting"}, "[8]": {"biological_target": "Inhibitor of nuclear factor kappa-B kinase subunit beta (Homo sapiens, UniProt O14920)", "sequence (O14920 whole entry)": "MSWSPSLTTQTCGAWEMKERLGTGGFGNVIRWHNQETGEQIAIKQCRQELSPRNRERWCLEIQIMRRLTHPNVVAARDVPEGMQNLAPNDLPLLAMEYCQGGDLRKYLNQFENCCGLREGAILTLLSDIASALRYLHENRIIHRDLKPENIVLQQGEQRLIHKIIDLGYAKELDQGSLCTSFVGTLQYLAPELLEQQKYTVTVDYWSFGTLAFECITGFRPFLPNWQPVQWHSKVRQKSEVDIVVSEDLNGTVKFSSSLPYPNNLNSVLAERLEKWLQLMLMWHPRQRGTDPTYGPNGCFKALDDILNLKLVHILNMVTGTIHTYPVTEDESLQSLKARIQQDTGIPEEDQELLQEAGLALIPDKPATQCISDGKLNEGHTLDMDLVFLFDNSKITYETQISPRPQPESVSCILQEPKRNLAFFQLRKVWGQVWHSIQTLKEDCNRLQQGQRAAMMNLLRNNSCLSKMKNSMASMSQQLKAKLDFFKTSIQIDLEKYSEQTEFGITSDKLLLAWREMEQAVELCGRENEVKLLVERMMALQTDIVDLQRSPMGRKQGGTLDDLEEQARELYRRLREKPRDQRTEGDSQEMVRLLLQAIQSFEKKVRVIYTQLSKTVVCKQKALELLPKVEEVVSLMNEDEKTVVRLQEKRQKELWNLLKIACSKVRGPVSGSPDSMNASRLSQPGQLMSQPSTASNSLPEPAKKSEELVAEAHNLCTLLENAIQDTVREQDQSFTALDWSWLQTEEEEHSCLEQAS", "test": "Inhibition of IKK2 assessed as [33P]gamma-ATP incorporation into substrate after 60 mins by gamma counting"}, "Insulin receptor": {"biological_target": "Insulin receptor (Homo sapiens, UniProt P06213)", "sequence (P06213 28-758 limits assumed)": "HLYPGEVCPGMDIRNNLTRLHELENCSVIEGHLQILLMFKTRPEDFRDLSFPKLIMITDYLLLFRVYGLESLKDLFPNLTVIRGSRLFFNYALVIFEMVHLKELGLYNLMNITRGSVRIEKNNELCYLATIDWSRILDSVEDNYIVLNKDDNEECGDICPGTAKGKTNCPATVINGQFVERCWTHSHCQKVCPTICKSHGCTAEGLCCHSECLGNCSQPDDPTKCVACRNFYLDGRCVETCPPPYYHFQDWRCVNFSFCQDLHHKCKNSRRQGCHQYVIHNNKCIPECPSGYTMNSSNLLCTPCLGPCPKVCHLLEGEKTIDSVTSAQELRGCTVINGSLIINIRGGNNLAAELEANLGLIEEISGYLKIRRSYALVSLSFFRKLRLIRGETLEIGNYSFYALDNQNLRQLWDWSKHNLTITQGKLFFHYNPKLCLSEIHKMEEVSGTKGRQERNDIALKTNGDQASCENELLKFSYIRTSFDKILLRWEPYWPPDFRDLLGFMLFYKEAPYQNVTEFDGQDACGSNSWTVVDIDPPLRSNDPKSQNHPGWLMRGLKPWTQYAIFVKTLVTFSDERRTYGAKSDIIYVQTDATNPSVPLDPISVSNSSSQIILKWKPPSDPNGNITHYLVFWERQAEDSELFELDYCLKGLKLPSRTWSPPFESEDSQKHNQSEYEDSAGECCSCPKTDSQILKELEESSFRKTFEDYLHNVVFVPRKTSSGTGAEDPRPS", "sequence (P06213 763-1382 limits assumed)": "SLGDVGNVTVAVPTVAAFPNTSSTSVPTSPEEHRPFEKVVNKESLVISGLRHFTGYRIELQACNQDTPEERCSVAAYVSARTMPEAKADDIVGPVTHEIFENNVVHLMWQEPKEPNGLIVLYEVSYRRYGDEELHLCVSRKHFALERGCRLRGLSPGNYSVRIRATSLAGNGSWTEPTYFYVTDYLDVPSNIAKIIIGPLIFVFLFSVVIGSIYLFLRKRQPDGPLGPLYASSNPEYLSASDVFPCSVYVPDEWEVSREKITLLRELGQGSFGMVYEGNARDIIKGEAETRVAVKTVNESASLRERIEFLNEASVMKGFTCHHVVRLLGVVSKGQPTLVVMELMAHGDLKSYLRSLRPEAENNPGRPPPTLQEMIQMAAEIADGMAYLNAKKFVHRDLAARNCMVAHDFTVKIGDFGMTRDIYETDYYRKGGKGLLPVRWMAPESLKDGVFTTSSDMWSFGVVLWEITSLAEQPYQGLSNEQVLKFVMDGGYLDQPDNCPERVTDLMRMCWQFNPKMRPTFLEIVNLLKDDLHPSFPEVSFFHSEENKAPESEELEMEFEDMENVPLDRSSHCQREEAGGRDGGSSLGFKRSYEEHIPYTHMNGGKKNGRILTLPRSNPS", "test": "Inhibition of IR assessed as [33P]gamma-ATP incorporation into substrate after 60 mins by gamma counting"}, "[9]": {"biological_target": "Tyrosine-protein kinase JAK1 (Homo sapiens, UniProt P23458)", "test": "Inhibition of JAK1 assessed as [33P]gamma-ATP incorporation into substrate after 60 mins by gamma counting"}, "[10]": {"biological_target": "Tyrosine-protein kinase JAK3 (Homo sapiens, UniProt P52333)", "test": "Inhibition of JAK3 assessed as [33P]gamma-ATP incorporation into substrate after 60 mins by gamma counting"}, "[11]": {"biological_target": "MAP kinase-activated protein kinase 2 (Homo sapiens, UniProt P49137)", "test": "Inhibition of MAPKAPK2 assessed as [33P]gamma-ATP incorporation into substrate after 60 mins by gamma counting"}, "[12]": {"biological_target": "Hepatocyte growth factor receptor (Homo sapiens, UniProt P08581)", "test": "Inhibition of MET assessed as [33P]gamma-ATP incorporation into substrate after 60 mins by gamma counting"}, "[13]": {"biological_target": "MAP kinase-interacting serine/threonine-protein kinase 2 (Homo sapiens, UniProt Q9HBH9)", "test": "Inhibition of MNK2 assessed as [33P]gamma-ATP incorporation into substrate after 60 mins by gamma counting"}, "[14]": {"biological_target": "Serine/threonine-protein kinase 26 (Homo sapiens, UniProt Q9P289)", "test": "Inhibition of MST4 assessed as [33P]gamma-ATP incorporation into substrate after 60 mins by gamma counting"}, "[15]": {"biological_target": "Serine/threonine-protein kinase pim-1 (Homo sapiens, UniProt P11309)", "sequence (P11309 whole entry)": "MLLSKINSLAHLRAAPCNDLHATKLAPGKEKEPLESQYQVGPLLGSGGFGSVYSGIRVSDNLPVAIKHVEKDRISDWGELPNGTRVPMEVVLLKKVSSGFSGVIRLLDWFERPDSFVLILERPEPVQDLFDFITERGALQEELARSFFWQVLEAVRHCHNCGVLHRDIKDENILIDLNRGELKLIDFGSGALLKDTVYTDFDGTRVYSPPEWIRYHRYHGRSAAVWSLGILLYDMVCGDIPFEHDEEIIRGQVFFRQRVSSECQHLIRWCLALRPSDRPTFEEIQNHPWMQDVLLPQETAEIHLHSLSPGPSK", "test": "Inhibition of PIM1 assessed as [33P]gamma-ATP incorporation into substrate after 60 mins by gamma counting"}, "[16]": {"biological_target": "cAMP-dependent protein kinase catalytic subunit alpha (Homo sapiens, UniProt P17612)", "test": "Inhibition of PKAalpha assessed as [33P]gamma-ATP incorporation into substrate after 60 mins by gamma counting"}, "[17]": {"biological_target": "Protein kinase C beta type (Homo sapiens, UniProt P05771)", "test": "Inhibition of PKCbeta assessed as [33P]gamma-ATP incorporation into substrate after 60 mins by gamma counting"}, "[18]": {"test": "Inhibition of SULU1 assessed as [33P]gamma-ATP incorporation into substrate after 60 mins by gamma counting"}, "HCT-116 [19]": {"system": "HCT-116", "test": "Antitumor activity against human HCT116 cells xenografted in CD1 nu/nu mouse assessed as tumor growth inhibition at 60 mg/kg, po administered once daily for 1 to 10 days measured on day 23", "type": "functional", "conditions": "read-out: TGI"}, "[20]": {"test": "Inhibition of CK2 assessed as [33P]gamma-ATP incorporation into substrate after 60 mins by gamma counting"}, "Activated CDC42 kinase 1": {"biological_target": "Activated CDC42 kinase 1 (Homo sapiens, UniProt Q07912)", "sequence (Q07912 whole entry)": "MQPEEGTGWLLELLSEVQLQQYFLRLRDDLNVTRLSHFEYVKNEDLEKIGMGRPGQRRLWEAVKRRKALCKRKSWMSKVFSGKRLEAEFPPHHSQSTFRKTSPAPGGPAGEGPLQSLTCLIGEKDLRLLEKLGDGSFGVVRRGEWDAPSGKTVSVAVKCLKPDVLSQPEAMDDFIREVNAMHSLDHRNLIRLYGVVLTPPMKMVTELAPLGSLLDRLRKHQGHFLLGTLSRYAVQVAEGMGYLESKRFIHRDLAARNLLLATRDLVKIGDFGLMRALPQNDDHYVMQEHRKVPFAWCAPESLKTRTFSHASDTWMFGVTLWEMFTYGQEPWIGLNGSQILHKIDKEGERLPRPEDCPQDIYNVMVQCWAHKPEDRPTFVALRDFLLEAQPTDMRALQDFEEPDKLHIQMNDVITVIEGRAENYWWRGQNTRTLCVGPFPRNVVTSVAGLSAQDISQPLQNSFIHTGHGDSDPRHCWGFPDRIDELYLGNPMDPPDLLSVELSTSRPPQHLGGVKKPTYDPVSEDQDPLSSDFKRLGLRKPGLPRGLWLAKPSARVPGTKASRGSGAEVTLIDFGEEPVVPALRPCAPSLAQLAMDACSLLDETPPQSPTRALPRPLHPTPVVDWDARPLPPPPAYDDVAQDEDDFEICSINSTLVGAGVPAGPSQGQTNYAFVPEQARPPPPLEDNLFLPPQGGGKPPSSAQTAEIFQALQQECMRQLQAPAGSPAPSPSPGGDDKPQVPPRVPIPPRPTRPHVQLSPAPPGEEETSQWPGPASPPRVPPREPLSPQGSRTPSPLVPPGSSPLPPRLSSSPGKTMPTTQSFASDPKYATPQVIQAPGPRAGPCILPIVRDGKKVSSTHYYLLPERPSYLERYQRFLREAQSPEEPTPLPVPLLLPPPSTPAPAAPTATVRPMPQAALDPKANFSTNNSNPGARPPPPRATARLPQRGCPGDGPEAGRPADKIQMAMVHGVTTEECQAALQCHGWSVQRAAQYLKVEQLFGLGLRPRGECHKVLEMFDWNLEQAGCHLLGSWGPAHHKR", "test": "Inhibition of ACK1 assessed as [33P]gamma-ATP incorporation into substrate after 60 mins by gamma counting"}, "[21]": {"biological_target": "RAC-alpha serine/threonine-protein kinase (Homo sapiens, UniProt P31749)", "test": "Inhibition of AKT1 assessed as [33P]gamma-ATP incorporation into substrate after 60 mins by gamma counting"}, "Aurora kinase A": {"biological_target": "Aurora kinase A (Homo sapiens, UniProt O14965)", "sequence (O14965 whole entry)": "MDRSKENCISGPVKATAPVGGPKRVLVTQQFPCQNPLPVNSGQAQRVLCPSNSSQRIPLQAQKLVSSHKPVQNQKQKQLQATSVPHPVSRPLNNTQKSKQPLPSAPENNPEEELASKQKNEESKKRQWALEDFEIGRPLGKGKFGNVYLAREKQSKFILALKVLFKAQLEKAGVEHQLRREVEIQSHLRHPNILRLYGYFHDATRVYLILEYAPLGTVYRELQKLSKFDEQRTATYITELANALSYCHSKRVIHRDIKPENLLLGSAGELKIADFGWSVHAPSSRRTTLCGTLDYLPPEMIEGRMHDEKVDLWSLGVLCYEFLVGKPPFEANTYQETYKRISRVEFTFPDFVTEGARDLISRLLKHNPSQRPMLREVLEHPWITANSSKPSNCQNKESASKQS", "test": "Inhibition of Aur-A assessed as [33P]gamma-ATP incorporation into substrate after 60 mins by gamma counting"}, "Aurora kinase B": {"biological_target": "Aurora kinase B (Homo sapiens, UniProt Q96GD4)", "test": "Inhibition of Aur-B assessed as [33P]gamma-ATP incorporation into substrate after 60 mins by gamma counting"}, "[22]": {"biological_target": "Protein-tyrosine kinase 6 (Homo sapiens, UniProt Q13882)", "test": "Inhibition of BRK assessed as [33P]gamma-ATP incorporation into substrate after 60 mins by gamma counting"}, "[23]": {"biological_target": "Cyclin-dependent kinase 2/cyclin A (Homo sapiens, UniProt P24941)", "test": "Inhibition of CDK2/CYCA assessed as [33P]gamma-ATP incorporation into substrate after 60 mins by gamma counting", "type": "protein-complex assay"}, "[24]": {"biological_target": "Cyclin-dependent kinase 2/cyclin E1 (Homo sapiens, UniProt P24941)", "test": "Inhibition of CDK2/CYCE assessed as [33P]gamma-ATP incorporation into substrate after 60 mins by gamma counting", "type": "protein-complex assay"}, "[25]": {"biological_target": "Serine/threonine-protein kinase Chk1 (Homo sapiens, UniProt O14757)", "sequence (O14757 whole entry)": "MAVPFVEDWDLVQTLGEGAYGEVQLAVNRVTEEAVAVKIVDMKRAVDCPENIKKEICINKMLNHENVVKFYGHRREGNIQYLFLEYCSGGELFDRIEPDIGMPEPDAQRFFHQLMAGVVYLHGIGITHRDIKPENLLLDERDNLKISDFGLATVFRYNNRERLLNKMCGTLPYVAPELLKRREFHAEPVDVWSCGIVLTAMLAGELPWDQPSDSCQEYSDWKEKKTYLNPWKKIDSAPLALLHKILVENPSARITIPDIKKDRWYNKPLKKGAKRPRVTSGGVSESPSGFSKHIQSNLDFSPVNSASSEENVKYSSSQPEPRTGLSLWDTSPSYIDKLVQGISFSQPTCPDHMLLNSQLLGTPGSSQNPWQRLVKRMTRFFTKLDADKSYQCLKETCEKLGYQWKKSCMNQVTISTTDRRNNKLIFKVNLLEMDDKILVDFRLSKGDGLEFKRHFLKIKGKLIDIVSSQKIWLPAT", "test": "Inhibition of CHK1 assessed as [33P]gamma-ATP incorporation into substrate after 60 mins by gamma counting"}, "[26]": {"biological_target": "Eukaryotic elongation factor 2 kinase (Homo sapiens, UniProt O00418)", "test": "Inhibition of EEF2K assessed as [33P]gamma-ATP incorporation into substrate after 60 mins by gamma counting"}, "[27]": {"test": "Solubility of compound in 10% Tween 80", "type": "physicochemical"}, "Caco-2": {"system": "Caco-2", "test": "Apparent permeability of the compound across human Caco2 cells", "type": "ADME, cell-based"}, "[28]": {"test": "Apparent permeability of the compound by PAMPA assay", "type": "ADME"}, "Mus musculus": {"system": "Mus musculus", "test": "Toxicity in CD1 nu/nu mouse xenografted with human HCT116 cells assessed as reversible body weight loss at 120 mg/kg, po once daily administered on days 1 to 2 in weekly scheduling for 4 cycles measured on day 29", "conditions": "in vivo"}, "HCT-116 [29]": {"system": "HCT-116", "test": "Antitumor activity against human HCT116 cells xenografted in CD1 nu/nu mouse assessed as tumor growth inhibition at 120 mg/kg, po once daily administered on days 1 to 2 daily in weekly scheduling for 4 cycles measured on day 36", "conditions": "HCT-116, po, 864 h, read-out: TGI"}}, "data": [{"smiles": "CN1CCN(c2ccc(OC(F)(F)F)c(Nc3ncc4c(n3)-c3c(c(C(N)=O)nn3CCO)CC4)c2)CC1", "note": "[ONVANSERTIB]", "values": [{"measurement": "IC50", "setting": "[1]", "result": "> 10", "unit": "µM"}, {"measurement": "IC50", "setting": "[2]", "result": "> 10", "unit": "µM"}, {"measurement": "IC50", "setting": "[3]", "result": "> 10", "unit": "µM"}, {"measurement": "IC50", "setting": "[4]", "result": "> 10", "unit": "µM"}, {"measurement": "IC50", "setting": "[5]", "result": "> 10", "unit": "µM"}, {"measurement": "IC50", "setting": "Ephrin type-A receptor 2", "result": "> 10", "unit": "µM"}, {"measurement": "IC50", "setting": "[6]", "result": "> 10", "unit": "µM"}, {"measurement": "IC50", "setting": "[7]", "result": "> 10", "unit": "µM"}, {"measurement": "IC50", "setting": "[8]", "result": "> 10", "unit": "µM"}, {"measurement": "IC50", "setting": "Insulin receptor", "result": "> 10", "unit": "µM"}, {"measurement": "IC50", "setting": "[9]", "result": "> 10", "unit": "µM"}, {"measurement": "IC50", "setting": "[10]", "result": "> 10", "unit": "µM"}, {"measurement": "IC50", "setting": "[11]", "result": "> 10", "unit": "µM"}, {"measurement": "IC50", "setting": "[12]", "result": "> 10", "unit": "µM"}, {"measurement": "IC50", "setting": "[13]", "result": "> 10", "unit": "µM"}, {"measurement": "IC50", "setting": "[14]", "result": "> 10", "unit": "µM"}, {"measurement": "IC50", "setting": "[15]", "result": "> 10", "unit": "µM"}, {"measurement": "IC50", "setting": "[16]", "result": "> 10", "unit": "µM"}, {"measurement": "IC50", "setting": "[17]", "result": "> 10", "unit": "µM"}, {"measurement": "IC50", "setting": "[18]", "result": "> 10", "unit": "µM"}, {"measurement": "inhibition in vivo at 60 mg/kg", "setting": "HCT-116 [19]", "result": 89, "unit": "%"}, {"measurement": "IC50", "setting": "[20]", "result": 826, "unit": "nM"}, {"measurement": "IC50", "setting": "Activated CDC42 kinase 1", "result": "> 10", "unit": "µM"}, {"measurement": "IC50", "setting": "[21]", "result": "> 10", "unit": "µM"}, {"measurement": "IC50", "setting": "Aurora kinase A", "result": "> 10", "unit": "µM"}, {"measurement": "IC50", "setting": "Aurora kinase B", "result": "> 10", "unit": "µM"}, {"measurement": "IC50", "setting": "[22]", "result": "> 10", "unit": "µM"}, {"measurement": "IC50", "setting": "[23]", "result": "> 10", "unit": "µM"}, {"measurement": "IC50", "setting": "[24]", "result": "> 10", "unit": "µM"}, {"measurement": "IC50", "setting": "[25]", "result": "> 10", "unit": "µM"}, {"measurement": "IC50", "setting": "[26]", "result": "> 10", "unit": "µM"}, {"measurement": "solubility", "setting": "[27]", "result": "> 3400", "unit": "µg/mL"}, {"measurement": "Papp", "setting": "Caco-2", "result": "permeable"}, {"measurement": "Papp", "setting": "[28]", "result": 49.6, "unit": "×10⁻⁶ cm/s"}, {"measurement": "Activity", "setting": "Mus musculus", "result": 18, "unit": "%"}, {"measurement": "inhibition in vivo at 120 mg/kg", "setting": "HCT-116 [29]", "result": 84, "unit": "%"}]}]}
